Experimental findings from patent publication US20230167118A1, “DEGRADATION OF BRUTON'S TYROSINE KINASE (BTK) BY CONJUGATION OF BTK INIDBITORS WITH E3 LIGASE LIGAND AND METHODS OF USE” (BEIGENE, LTD., priority 2020, published 2023) are described below.

In assay [1] the test system is HEK-293 cells. In words: HEK-293 Cytotoxicity Assay (CellTiter-Glo). It is filed as cell-based. As to conditions: Homo sapiens, HEK293, 72 h incubation, CellTiter-Glo luminescence. A digest of the protocol:
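HEK-293 cells treated 72 h with 8 concentrations (4-fold dilutions, 0.2% DMSO final). Viability read by CellTiter-Glo luminescence; IC50 from four-parameter logistic fit of % inhibition.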

The target of assay [2] is T1, BTK (Homo sapiens, UniProt Q06187).
T1 construct: High control=Cell group with added DMSO and without compound, indicating microplate readings without BTK degradation; endogenous in cells; host or cells: TMD-8 cells
In words: Cell Degradation: BTK degradation in TMD-8 cells, HTRF assay. It is filed as cell-based. Particulars: 6 h treatment, IC50 (DC50) of BTK degradation. A digest of the protocol:
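TMD-8 cells treated 6 h with 8-dose 6-fold dilutions in 0.2% DMSO, then lysed and BTK quantified by HTRF (665/620 nm). Degradation % normalised to high/low controls; DC50 from four-parameter fit, Dmax as maximal degradation.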

T1 sequence (Q06187 whole entry): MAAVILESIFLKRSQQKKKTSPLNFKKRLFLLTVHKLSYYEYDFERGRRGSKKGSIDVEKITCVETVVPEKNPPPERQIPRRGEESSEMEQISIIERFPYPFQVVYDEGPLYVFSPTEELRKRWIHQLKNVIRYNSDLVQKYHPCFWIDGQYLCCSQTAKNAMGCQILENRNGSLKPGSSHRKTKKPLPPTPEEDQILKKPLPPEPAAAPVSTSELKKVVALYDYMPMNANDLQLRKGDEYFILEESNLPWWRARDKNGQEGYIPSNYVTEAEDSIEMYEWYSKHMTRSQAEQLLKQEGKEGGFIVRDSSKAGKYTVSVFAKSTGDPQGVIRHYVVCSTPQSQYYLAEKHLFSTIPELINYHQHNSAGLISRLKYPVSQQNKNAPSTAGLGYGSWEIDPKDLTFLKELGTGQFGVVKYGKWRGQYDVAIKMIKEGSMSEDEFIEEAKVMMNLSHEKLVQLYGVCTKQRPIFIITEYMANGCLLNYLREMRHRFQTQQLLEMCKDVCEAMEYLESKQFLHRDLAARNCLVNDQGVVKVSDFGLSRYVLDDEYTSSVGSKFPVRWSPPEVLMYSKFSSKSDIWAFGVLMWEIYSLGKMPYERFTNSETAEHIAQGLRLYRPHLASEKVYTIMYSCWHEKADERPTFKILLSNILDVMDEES

In the case of `Cc1cc(-c2ncnc3[nH]c(-c4ccc(N5CCN(CC6CCN(c7ccc(N8CC(=O)NC8=O)cc7)CC6)CC5)cn4)cc23)ccc1[C@@H](C)NC(=O)c1nc(C(C)(C)C)no1` [Example 184, (R)-3-(tert-butyl)-N-(1-(4-(6-(5-(4-((1-(4-(2,4-dioxoimidazolidin-1-yl)phenyl)piperidin-4-yl)methyl)piperazin-1-yl)pyridin-2-yl)-7H-pyrrolo[2,3-d]pyrimidin-4-yl)-2-methylphenyl)ethyl)-1,2,4-oxadiazole-5-carboxamide], the IC50 (usually the concentration that gives 50% inhibition) in assay [1] is greater than 10000 nM. The DC50 (commonly the concentration giving 50% degradation) in assay [2] was 2.7 nM.

As to `Cc1cc(-c2ncnc3[nH]c(-c4ccc(N5CCN(CC6CCN(c7ccc(N8CCC(=O)NC8=O)cc7)CC6)CC5)cn4)cc23)ccc1[C@@H](C)NC(=O)c1nnc(C(C)(C)C)o1` [Example 185, (R)-5-(tert-butyl)-N-(1-(4-(6-(5-(4-((1-(4-(2,4-dioxotetrahydropyrimidin-1(2H)-yl)phenyl)piperidin-4-yl)methyl)piperazin-1-yl)pyridin-2-yl)-7H-pyrrolo[2,3-d]pyrimidin-4-yl)-2-methylphenyl)ethyl)-1,3,4-oxadiazole-2-carboxamide], the IC50 in assay [1] is greater than 10000 nM. In assay [2], this compound showed a 50% degradation concentration (DC50) of 0.5 nM.

`Cc1cc(-c2ncnc3[nH]c(-c4ncc(N5CCN(CC6CCN(c7ccc(N8CCC(=O)NC8=O)cc7)CC6)CC5)s4)cc23)ccc1[C@@H](C)NC(=O)c1nc(C(C)(C)C)no1` [Example 186, (R)-3-(tert-butyl)-N-(1-(4-(6-(5-(4-((1-(4-(2,4-dioxotetrahydropyrimidin-1(2H)-yl)phenyl)piperidin-4-yl)methyl)piperazin-1-yl)thiazol-2-yl)-7H-pyrrolo[2,3-d]pyrimidin-4-yl)-2-methylphenyl)ethyl)-1,2,4-oxadiazole-5-carboxamide] gave an IC50 in assay [1] greater than 10000 nM. Moreover, in assay [2], the 50% degradation concentration (DC50) stood at 1.04 nM.

`Cc1cc(-c2ncnc3[nH]c(-c4ccc(N5CCN(CC6CCN(c7ccc(-n8ccc(=O)[nH]c8=O)cc7)CC6)CC5)nc4)cc23)ccc1[C@@H](C)NC(=O)c1nc(C(C)(C)C)no1` [Example 187, (R)-3-(tert-butyl)-N-(1-(4-(6-(6-(4-((1-(4-(2,4-dioxo-3,4-dihydropyrimidin-1(2H)-yl)phenyl)piperidin-4-yl)methyl)piperazin-1-yl)pyridin-3-yl)-7H-pyrrolo[2,3-d]pyrimidin-4-yl)-2-methylphenyl)ethyl)-1,2,4-oxadiazole-5-carboxamide] gave an IC50 in assay [1] greater than 10000 nM. This compound also had a DC50 in assay [2] of 2.65 nM.

Compound `Cc1cc(-c2ncnc3[nH]c(-c4ccc(N5CCN([C@H]6C[C@@H](c7ccc(N[C@H]8CCC(=O)NC8=O)cc7)C6)CC5)nc4)cc23)ccc1[C@@H](C)NC(=O)c1nc(C(C)(C)C)no1` [Example 188, 3-(tert-butyl)-N-((R)-1-(4-(6-(6-(4-((1R,3s)-3-(4-(((S)-2,6-dioxopiperidin-3-yl)amino)phenyl)cyclobutyl)piperazin-1-yl)pyridin-3-yl)-7H-pyrrolo[2,3-d]pyrimidin-4-yl)-2-methylphenyl)ethyl)-1,2,4-oxadiazole-5-carboxamide] gave an IC50 in assay [1] greater than 10000 nM. This compound displayed a DC50 in assay [2] of 3.03 nM.

`Cc1cc(-c2ncnc3[nH]c(-c4ccc(N5CCN([C@H]6C[C@@H](c7ccc(N[C@@H]8CCC(=O)NC8=O)cc7)C6)CC5)nc4)cc23)ccc1[C@@H](C)NC(=O)c1nc(C(C)(C)C)no1` [Example 189, 3-(tert-butyl)-N-((R)-1-(4-(6-(6-(4-((1S,3s)-3-(4-(((R)-2,6-dioxopiperidin-3-yl)amino)phenyl)cyclobutyl)piperazin-1-yl)pyridin-3-yl)-7H-pyrrolo[2,3-d]pyrimidin-4-yl)-2-methylphenyl)ethyl)-1,2,4-oxadiazole-5-carboxamide]: the IC50 in assay [1] was greater than 10000 nM. Further, in assay [2], the DC50 is greater than 2000 nM.

For the compound `Cc1cc(-c2ncnc3[nH]c(-c4ccc(N5CCN(CC6CCN(c7ccc(N8CCC(=O)NC8=O)cc7)CC6)C(=O)C5)cc4)cc23)ccc1[C@@H](C)NC(=O)c1nc(C(C)(C)C)no1` [Example 190, (R)-3-(tert-butyl)-N-(1-(4-(6-(4-(4-((1-(4-(2,4-dioxotetrahydropyrimidin-1(2H)-yl)phenyl)piperidin-4-yl)methyl)-3-oxopiperazin-1-yl)phenyl)-7H-pyrrolo[2,3-d]pyrimidin-4-yl)-2-methylphenyl)ethyl)-1,2,4-oxadiazole-5-carboxamide], the concentration for half-maximal inhibition (IC50) in assay [1] is greater than 10000 nM. In assay [2], this compound showed a DC50 of 0.28 nM.

`Cc1cc(-c2ncnc3[nH]c(-c4ccc(N5CCN([C@H]6C[C@@H](c7ccc(O[C@H]8CCC(=O)NC8=O)cc7)C6)CC5)nc4)cc23)ccc1[C@@H](C)NC(=O)c1nc(C(C)(C)C)no1` [Example 191, 3-(tert-butyl)-N-((R)-1-(4-(6-(6-(4-((1R,3s)-3-(4-(((S)-2,6-dioxopiperidin-3-yl)oxy)phenyl)cyclobutyl)piperazin-1-yl)pyridin-3-yl)-7H-pyrrolo[2,3-d]pyrimidin-4-yl)-2-methylphenyl)ethyl)-1,2,4-oxadiazole-5-carboxamide] gave an IC50 in assay [1] greater than 10000 nM. In assay [2], this compound displayed a DC50 of 1.59 nM.

The compound `Cc1cc(-c2ncnc3[nH]c(-c4ccc(N5CCN([C@H]6C[C@@H](c7ccc(O[C@@H]8CCC(=O)NC8=O)cc7)C6)CC5)nc4)cc23)ccc1[C@@H](C)NC(=O)c1nc(C(C)(C)C)no1` [Example 192, 3-(tert-butyl)-N-((R)-1-(4-(6-(6-(4-((1S,3s)-3-(4-(((R)-2,6-dioxopiperidin-3-yl)oxy)phenyl)cyclobutyl)piperazin-1-yl)pyridin-3-yl)-7H-pyrrolo[2,3-d]pyrimidin-4-yl)-2-methylphenyl)ethyl)-1,2,4-oxadiazole-5-carboxamide] had an IC50 in assay [1] greater than 10000 nM. For the same compound, the DC50 in assay [2] was greater than 2000 nM.
